Data from US20230302009A1, “BACE1 INHIBITOR TREATMENT FOR S[…] STORM” (priority 2020, published 2023).

What was measured:
[1] = tested on: LPS-challenged mice; test: H&E histology, tissue injury score after LPS; settings: LPS only or LPS plus MK-8931
[2] = AD clinical trials (refs 27, 28, 34, 35); cited from earlier work
[3] = tested on: LPS-challenged mice; test: Survival rescue after lethal dose of LPS; format: in vivo, C57BL/6 mice
[4] = tested on: LPS-challenged mice; settings: mice without LPS treatment, MK-8931 50 mg/kg oral
[5] = MK-8931 plus LPS versus LPS only

Compound | tissue injury in spleen and liver [1] | tolerability in patients [2] | mice died ([3]; LPS 15 mg/kg i.p. plus MK-8931 50 mg/kg oral, 3 of 14 mice, between 20 to 96 hours after LPS) [%] | mice survived ([3]; LPS 15 mg/kg i.p. plus MK-8931 50 mg/kg oral, 11 of the 14 mice) [%] | increase of survival [3, 5] [%] | reduction of mortality rate [3, 5] [fold] | plasma levels of cytokines/chemokines, MK-8931 alone [4]
CN1C(N)=N[C@](C)(c2cc(NC(=O)c3ccc(F)cn3)ccc2F)CS1(=O)=O [MK-8931] | No significant tissue injury | safe oral drug and well-tolerated | 21.4 | 78.6 | 367 | 3.7 | did not affect
CC#Cc1cncc(-c2ccc3c(c2)C2(N=C(C)C(N)=N2)C2(CCC(OC)CC2)C3)c1 (stereo not drawn) [AZD3293] |  | well-tolerated |  |  |  |  | 
C[C@@]1(c2nc(NC(=O)c3ncc(C(F)(F)F)cc3Cl)ccc2F)CO[C@@](C)(C(F)(F)F)C(N)=N1 [CNP50] |  | well-tolerated |  |  |  |  | 
